“And” between values parts separate entries of the source, which are not always exact repeats. Identical values can stand only once.
Columns and labels:
[1] = biological target: T1, QR1 (NQO1) (Homo sapiens, UniProt P15559); assay: Selectivity assay with QR1 in place of QR2, fluorescence readout; type: biochemical
T1 construct: purchased Sigma-Aldrich
Protocol: (§1) The enzymatic activity of QR2 (10 nM) was measured using menadione (both Sigma-Aldrich) as substrate and dihydrobenzylnicotamide (BNAH; Tocris) as co-substrate (Boutin et al., 2005). The reaction was performed in 50 mM Tris HCl, 150 mM NaCl 0.01% Tween-20 pH=8.5 (Sigma-Aldrich) at room temperature. Briefly, 3 μL of menadione alone (200 μM) or a mixture of menadione and QR2 (200 μM of menadione and 10 nM of QR2) were dispensed in 1536-well black Nunc plates (Thermo-Fisher) using a Multidrop™ Combi Reagent Dispenser (Thermo-Fisher) and pre-incubated with compounds for 10 min. BNAH (200 μM) was then added (3 μL) to the reaction using a BioNex Solutions BNX 1536 plate washer and the plates were incubated for another 10 min. […] The initial HTS was done with approximately 200,000 compounds at a single concentration of 5 μM. The chemical libraries used were Selleck Chemicals Bioactives, the Drug-like set from Enamine, HitFinder collection from Maybridge, Spectrum Collection from Microsource, Lopac from Sigma-Aldrich and the diversity sets from ChemDiv and ChemBridge. Initial “hit” compounds were defined as causing >30% reduction of enzyme activity. Compounds suspected to be fluorescent were re-assayed in an absorbance assay at 350 nm using the same reaction but in a higher volume (100 μL), in a transparent plate (Greiner Bio-One). “Hit” compounds resulting from both the fluorescence and absorbance assay were tested in a dose-response, and median inhibition concentration (IC50) values were determined. In parallel, the same dose response was used in a selectivity assay where QR2 enzyme was replaced by QR1 (also known as—NQO1, 10 nM; Sigma-Aldrich).
(§2) In order to establish a varied, flexible and chemically amenable starting point from which to develop such inhibitors, the inventors ran a standardized QR2 assay (see methods) against ˜200,000 compounds, from a varied assortment of chemical libraries. […] Compounds that replicated the initial hit result were then assayed similarly, against NQO1, to evaluate compound specificity (FIG. 1B). From the HTS, a series of compounds containing a sulfonamide central linker, with an amine on one side and a heterocycle on the other, were identified and selected for SAR development (FIG. 1C).

[2] = biological target: T1, QR1 (NQO1); assay: Selectivity assay with QR1 in place of QR2, absorbance readout; type: biochemical
Protocol: as §1, §2

[3] = in vitro; conditions: human
[4] = biological target: T2, QR2 (Homo sapiens, UniProt P16083); assay: QR2 enzymatic activity assay (menadione/BNAH), fluorescence readout; type: biochemical; design: purchased Sigma-Aldrich
T2 sequence (P16083 1-231): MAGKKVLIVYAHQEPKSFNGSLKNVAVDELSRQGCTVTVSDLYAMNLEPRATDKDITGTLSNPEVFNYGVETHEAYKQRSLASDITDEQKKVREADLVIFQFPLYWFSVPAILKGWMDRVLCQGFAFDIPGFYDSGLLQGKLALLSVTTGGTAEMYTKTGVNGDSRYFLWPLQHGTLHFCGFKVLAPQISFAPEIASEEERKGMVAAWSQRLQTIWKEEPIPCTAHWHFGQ
Protocol: (§3) The enzymatic activity of QR2 (10 nM) was measured using menadione (both Sigma-Aldrich) as substrate and dihydrobenzylnicotamide (BNAH; Tocris) as co-substrate (Boutin et al., 2005). The reaction was performed in 50 mM Tris HCl, 150 mM NaCl 0.01% Tween-20 pH=8.5 (Sigma-Aldrich) at room temperature. Briefly, 3 μL of menadione alone (200 μM) or a mixture of menadione and QR2 (200 μM of menadione and 10 nM of QR2) were dispensed in 1536-well black Nunc plates (Thermo-Fisher) using a Multidrop™ Combi Reagent Dispenser (Thermo-Fisher) and pre-incubated with compounds for 10 min. BNAH (200 μM) was then added (3 μL) to the reaction using a BioNex Solutions BNX 1536 plate washer and the plates were incubated for another 10 min. […] The initial HTS was done with approximately 200,000 compounds at a single concentration of 5 μM. The chemical libraries used were Selleck Chemicals Bioactives, the Drug-like set from Enamine, HitFinder collection from Maybridge, Spectrum Collection from Microsource, Lopac from Sigma-Aldrich and the diversity sets from ChemDiv and ChemBridge. Initial “hit” compounds were defined as causing >30% reduction of enzyme activity. […] “Hit” compounds resulting from both the fluorescence and absorbance assay were tested in a dose-response, and median inhibition concentration (IC50) values were determined. In parallel, the same dose response was used in a selectivity assay where QR2 enzyme was replaced by QR1 (also known as—NQO1, 10 nM; Sigma-Aldrich).
(§4) In order to establish a varied, flexible and chemically amenable starting point from which to develop such inhibitors, the inventors ran a standardized QR2 assay (see methods) against ˜200,000 compounds, from a varied assortment of chemical libraries.

[5] = biological target: T2, QR2; assay: QR2 enzymatic activity assay (menadione/BNAH), absorbance readout at 350 nm; type: biochemical; design: purchased Sigma-Aldrich
Protocol: as §3, §4

[6] = system: HEK293T cells; assay: XTT cell viability assay; type: cell-based; conditions: 3 h incubation, 20 nM-20 μM
Protocol: HEK293FT cells were cultured with penicillin-streptomycin antibiotics in Invitrogen DMEM (Thermo Fisher Scientific) with 10% fetal bovine serum and L-glutamine and grown to 80-90% confluence in 100 mm plates, while being passaged every 2-3 days. For the XTT assay (Biological Industries), cells were then collected, centrifuged, and resuspended in fresh minimum essential medium, and seeded at 50,000 cells/well in 96-well, poly-L-lysine-coated Nunc black, clear flat-bottomed plates (Thermo Fisher Scientific). The next day, the cells were treated with increasing doses of QR2 inhibitors or vehicle for 3 h, and the XTT assay was then carried out as according to the manufacturer's instructions.

[7] = system: THLE-2 cells; assay: Cell toxicity assay (ATP depletion, CellTiter Glo); conditions: 72 h incubation, CellTiter Glo
[8] = Cell toxicity assay (ATP depletion, CellTiter Glo); conditions: human
[9] = biological target: T2, QR2; assay: Cellular thermal shift assay (CETSA) of QR2 in HEK293T cells; type: cell-based; design: endogenous in cells; host or cells: HEK293T
Protocol: The CETSA assay was performed as described (Miettinen and Björklund, 2014) with some modifications. Briefly, HEK293T cells were trypsinized (Biological Industries), washed in PBS (Sigma-Aldrich), and then suspended in PBS containing protease inhibitor cocktail (Roche). The suspended cells were then divided into two Eppendorf tubes and were treated with either: a compound or DMSO (Sigma-Aldrich) for 1 h at 37° C. under shaking. Following treatment, each sample was divided into PCR tubes (100 μL/tube) and subjected to a temperature gradient (ranging from 63 to 80° C.) for 3 minutes. Cell lysates were obtained by 3-cycles of freeze-thaw using liquid nitrogen and a thermal block set to 25° C. Samples were then centrifuged at 15,000 rpm at 4° C. for 20 min and were subsequently analyzed by western blot targeting QR2 (1:100, Santa Cruz; sc-271665). The isothermal dose response fingerprint (ITDRF) experiments were done using a constant temperature of 73° C. Band intensities were normalized to the highest concentration and superoxide dismutase 1 (SOD1) levels (1:200, Santa Cruz; sc-17767). Analysis of the results were performed according to Jafari et al., (2014) using GraphPad Prism software.
To establish direct target engagement, as well as cell membrane permeability, a cellular thermal shift assay (CETSA) was carried out (see methods), using the leading compounds YB-537, YB-800, and YB-808. Following 1 h preincubation with 5 μM of each of the compounds, or vehicle, thermal aggregation curves (Tagg) of QR2 expressed in HEK293T were measured in increasing temperatures. […] Based on the Tagg curves, the inventors selected 73° C. for isothermal dose-response fingerprint (IDTRF) experiments (FIG. 2B).

T1 sequence (P15559 whole entry): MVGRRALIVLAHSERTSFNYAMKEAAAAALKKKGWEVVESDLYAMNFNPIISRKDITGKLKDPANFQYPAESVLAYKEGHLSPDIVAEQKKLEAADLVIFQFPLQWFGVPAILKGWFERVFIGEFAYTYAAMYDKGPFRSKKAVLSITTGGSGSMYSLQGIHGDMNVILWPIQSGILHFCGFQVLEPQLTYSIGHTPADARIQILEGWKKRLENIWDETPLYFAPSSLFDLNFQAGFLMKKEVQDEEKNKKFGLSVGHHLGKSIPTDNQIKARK

`Cc1cccn2cc(-c3cccc(S(=O)(=O)N(C)C)c3)nc12` [PCM-0213804] gave an IC50 [1] greater than 9.99 µM, an IC50 [2] greater than 9.99 µM and an IC50 at 72 h [3] greater than 100000 nM. It also gave an IC50 [4] of 0.19 µM and an IC50 [5] of 0.02 µM.
`Cc1cccn2cc(-c3cccc(S(=O)(=O)NCc4cccnc4)c3)nc12` [PCM-0213814] showed an IC50 [1] greater than 9.99 µM, an IC50 [2] of 7.18 µM and an IC50 at 72 h [3] greater than 99000 nM. For the same compound, the IC50 [4] was 0.02 µM and the IC50 [5] was 0.02 µM.
`Cc1ccc(-c2cn3cccc(C)c3n2)cc1S(=O)(=O)N1CCCCCC1` [PCM-0214338] showed an IC50 [1] greater than 9.99 µM, an IC50 [2] greater than 9.99 µM and an IC50 at 72 h [3] greater than 99000 nM. It also gave an IC50 [4] of 0.02 µM and an IC50 [5] of 0.03 µM.
With `Cc1ccc(-c2cn3cccc(C)c3n2)cc1S(=O)(=O)N1CCCC1` [YB-808] the “toxicity in XTT assay” value [6] was “no toxicity”, the “median lethal dose (LD50) in THLE cells” value [7] was 59.7 µM and 59.704 µM and the IC50 at 72 h [8] was 59700 nM. The IC50 [1] was greater than 9.99 µM, the IC50 [2] was greater than 9.99 µM and the “thermal stability of QR2 (thermal aggregation curve) versus vehicle” value ([9]; 5 μM, 1 h preincubation) was “shifts of thermal stability”. For the same compound, the EC50 ([9]; CETSA at 73° C., read-out: EC50 of QR2 stabilization (isothermal dose-response fingerprint)) was 13 nM and the IC50 [4] was 0.01 µM.

Reference: patent US20240228481A1, “NOVEL SULFONAMIDE SERIES OF QR2 INHIBITORS TO TACKLE OXIDATIVE STRESS AND COGNITIVE DECLINE” (CARMEL HAIFA UNIVERSITY ECONOMIC CORPORATION LTD., priority 2021, published 2024)
